Assay results from patent publication US12599640B2, “Lactobacillus plantarum ZUST49 and bacterial agent, and use thereof” (ZHEJIANG UNIVERSITY OF SCIENCE AND TECHNOLOGY, priority 2023, dated 2026).

Assay: Production of sulforaphane by feeding mice with enteric capsule (plasma sulforaphane, cyclocondensation method)
Type: in vivo
Details: mouse plasma; intragastric glucoraphanin aqueous solution, 150 μmol of glucoraphanin/kg; blood taken at 0 h and 12 h
Excerpt: C57BL/6 male mice of 6 to 8 weeks were pre-reared for 1 week and randomly divided into an enteric capsule group, a glucoraphanin group, and a blank group. Mice in the enteric capsule group were intragastrically administered daily with an enteric capsule aqueous solution containing Lactobacillus plantarum ZUST49 and glucoraphanin (150 μmol of glucoraphanin/kg and ZUST49 content of 8.7×10^5 CFU/g, and prepared according to the method of example 3). The mice in the glucoraphanin group were intragastrically administrated with a glucoraphanin aqueous solution (150 μmol of glucoraphanin/kg). The mice were fed with food and water ad libitum. Food intake and weight were recorded daily. The mice were deeply anesthetized with an intraperitoneal injection of ketamine/xylazine (87 mg/mL and 13 mg/mL respectively, and 0.1 mL/100 g mice) at 0 h and 12 h (6 mice/group each time period), and put to death by cervical dislocation after blood collection by cardiac puncture. The sulforaphane content in plasma of the mice was determined by a cyclocondensation method.

C[S+]([O-])CCCC/C(=N\OS(=O)(=O)O)S[C@@H]1O[C@H](CO)[C@@H](O)[C@H](O)[C@H]1O (stereo partly shown) [glucoraphanin]
sulforaphane content in the plasma of the mice: 0.017 ± 0.030 µM
